In patent US6387930B1, “Piperidine derivatives useful as CCR5 antagonists” (Schering Corporation, priority 1999, dated 2002):

molecular target: T1, human CCR5 chemokine receptor (Homo sapiens, UniProt P51681); test: CCR5 membrane binding assay (inhibition of RANTES binding); settings: membranes from NIH 3T3 cells expressing human CCR5; 125I-RANTES
T1 construct: expressed in transfected cells; host or cells: NIH 3T3 cells (mouse fibroblasts), membrane preparation
Method: CCR5 Membrane Binding Assay:
A high throughput screen utilizing a CCR5 membrane binding assay identifies inhibitors of RANTES binding. This assay utilizes membranes prepared from NIH 3T3 cells expressing the human CCR5 chemokine receptor which have the ability to bind to RANTES, a natural ligand for the receptor. Using a 96-well plate format, membrane preparations are incubated with ^125I-RANTES in the presence or absence of compound for one hour. Compounds are serially diluted over a wide range of 0.001 ug/ml to 1 ug/ml and tested in triplicates. Reaction cocktails are harvested through glass fiber filters, and washed thoroughly. Total counts for replicates are averaged and data reported as the concentration required to inhibit 50 percent of total ^125I-RANTES binding.

T1 sequence (P51681 whole entry): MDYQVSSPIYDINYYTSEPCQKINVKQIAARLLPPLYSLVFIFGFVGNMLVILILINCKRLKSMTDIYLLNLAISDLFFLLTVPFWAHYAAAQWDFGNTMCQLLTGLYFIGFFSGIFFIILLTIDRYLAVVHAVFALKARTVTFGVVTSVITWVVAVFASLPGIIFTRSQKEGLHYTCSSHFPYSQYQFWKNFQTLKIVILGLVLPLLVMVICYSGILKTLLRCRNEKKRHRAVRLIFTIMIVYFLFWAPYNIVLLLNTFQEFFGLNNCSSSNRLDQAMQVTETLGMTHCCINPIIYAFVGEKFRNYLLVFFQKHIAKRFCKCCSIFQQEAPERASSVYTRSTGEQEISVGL

Row | Ki [nM] | SMILES
1 | 0.5 | Cc1ccnc(C)c1C(=O)N1CCC(C)(N2CCC(C(Oc3ccccn3)c3ccc(Br)cc3)CC2)CC1 (single isomer, unassigned) [Example 4B]
2 | 1 | Cc1cccc(C)c1C(=O)N1CCC(C)(N2CCC(C(Oc3nccs3)c3ccc(Br)cc3)CC2)CC1 (stereo not shown) [Example 1J]
3 | 1.8 | Cc1ccnc(C)c1C(=O)N1CCC(C)(N2CCC(C(Oc3ccccn3)c3ccc(C(F)(F)F)cc3)CC2)CC1 (stereo not shown) [Example 2G]
4 | 0.58 | CC1(N2CCC(C(Oc3ccccn3)c3ccc(C(F)(F)F)cc3)CC2)CCN(C(=O)c2c(Cl)cncc2Cl)CC1 (stereo not shown) [Example 2JJ]
5 | 17.9 | Cc1ccnc(C)c1C(=O)N1CCC(C)(N2CCC(C(Oc3cnccn3)c3ccc(S(C)(=O)=O)cc3)CC2)CC1 (stereo not shown) [Example 2S]
6 | 0.1 | CCO/N=C(\c1ccc(Br)cc1)C1CCN(C2(C)CCN(C(=O)c3c(C)cc(-c4ccncc4)cc3C)CC2)CC1 [Example 5AB]
7 | 7.9 | CO/N=C(\c1ccc(Br)cc1)C1CCN(C2(C)CCN(C(=O)c3c(C)ncnc3C)CC2)CC1 [Example 5L]
8 | 1.7 | CCO/N=C(\c1ccc(Br)cc1)C1CCN(C2(C)CCN(C(=O)c3c(C)ncnc3C)CC2)CC1 [Example 5N]
9 | 0.8 | CCO/N=C(\c1ccc(C(F)(F)F)cc1)C1CCN(C2(C)CCN(C(=O)c3c(Cl)cncc3Cl)CC2)CC1 [Example 6V]
10 | 588 | CC1(N2CCC(Cc3ccc(Br)cc3)CC2)CCN(C(=O)c2cccc3ccccc23)CC1 [Example 9D]
